Test results published in patent publication US6039963A, “Ceramide compounds, process for their preparation and use” (L'Oreal, priority 1995, dated 2000).

How the values were obtained:
[1] = imperceptible water loss (IWL), evaporimeter (Servomed) on delipidized stratum corneum
Excerpt: This measurement is made using an evaporimeter (Servomed) which quantitatively determines water evaporation, that is to say diffusional water transport, from a sample of previously delipidized stratum corneum which forms a stopper in a cylindrical capsule containing water, the entire assembly being placed in a chamber at controlled temperature and relative humidity.
Sensors allow the partial vapor pressure of water to be measured at two points located at different distances from the sample.
The partial vapor pressure of water is thus determined between the two points, and thus the rate of evaporation in accordance with Fick's law.
A comparative test was performed of the effects on the IWL of a solution containing the compound of Example 2 or 4 in tetrahydrofuran (THF) relative to a solution containing, in place of the compound according to the invention, either the pure isomer (D-ribo form) corresponding to the compound of Example 4 (compound A), or the compound of Example 1 of the European patent application published under the No. 0,500,437 filed by the Applicant (compound B).

[2] = coefficient of friction of the hair (smoothness), neutral hair, 1% in THF; conditions: for coefficient of friction of the hair, R → T / coefficient of friction of the hair, T → R: neutral hair, 1% in THF; for coefficient of friction of the hair, R → T: root to tip; for coefficient of friction of the hair, T → R: tip to root
Protocol: (§1) A comparative test was performed on the effects on the smoothness of the hair of a solution containing 1% of the compound of Example 4 in tetrahydrofuran (THF), relative to a control consisting of THF, or to a solution containing, in place of the compound according to the invention, either the pure isomer (D-ribo form) corresponding to the compound of Example 4 (compound A) or the compound of Example 1 of the European patent application published under the No. 0,500,437 owned by the present assignee (compound B).
(§2) This test determines the coefficient of friction of the hair by measuring the force to apply to a control mass in order to make it slide at constant speed on two hairs stretched out in parallel. The measurement is made by sliding the mass from the root to the tip of the hairs (R→T) and vice versa (T→R).

[3] = coefficient of friction of the hair (smoothness), bleached hair, 1% in THF; conditions: for coefficient of friction of the hair, R → T: root to tip; for coefficient of friction of the hair, T → R: tip to root
Protocol: as §1, §2

| SMILES | I.W.L. 20 H (%) ([1]; 2% in THF) | coefficient of friction of the hair, R → T ([2]; non-rinsed) | coefficient of friction of the hair, T → R ([2]; non-rinsed) | coefficient of friction of the hair, R → T ([2]; rinsed) | coefficient of friction of the hair, T → R ([2]; rinsed) | coefficient of friction of the hair, R → T ([3]; non-rinsed) | coefficient of friction of the hair, T → R ([3]; non-rinsed) | coefficient of friction of the hair, R → T ([3]; rinsed) | coefficient of friction of the hair, T → R ([3]; rinsed) | I.W.L. 20 H (%) ([1]; 1% in THF) | coefficient of friction (result in words) ([2]; summary of Table 1, neutral and bleached hair) | I.W.L. 20 H (%) ([1]; 1.5% in THF) |
| --- | --- | --- | --- | --- | --- | --- | --- | --- | --- | --- | --- | --- |
| CCCCCCCCCCCCCCC(O)C(=O)NC(CO)C(O)C(O)CCCCCCCCCCCCCC (racemic) [Example 2, 2-N-hydroxyhexadecanoylaminooctadecane-1,3,4-triol(4 isomers)] | -31 ± 2 | – | – | – | – | – | – | – | – | – | – | – |
| CCCCCCCCCCCCCCCC(=O)N[C@@H](CO)[C@H](O)[C@H](O)CCCCCCCCCCCCCC [Compound A, reference compound] | – | 0.000 | 0.000 | 0.125 ± 0.004 | 0.214 ± 0.004 | 0.000 | 0.000 | 0.191 ± 0.004 | 0.264 ± 0.012 | 0 ± 2 | – | – |
| CCCCCCCCCCCCCCCC(=O)NC(CO)C(O)C(O)CCCCCCCCCCCCCC (stereo not drawn) [Example 4, 2-N-hexadecanoylaminooctadecane-1,3,4-triol (8 isomers)] | – | 0.089 ± 0.003 | 0.143 ± 0.003 | 0.095 ± 0.004 | 0.147 ± 0.004 | 0.009 ± 0.006 | 0.147 ± 0.006 | 0.085 ± 0.002 | 0.155 ± 0.004 | -9 ± 2 | marked decrease in the coefficient of friction | -15 ± 2 |
